# Test results published in patent US9133158B2, “Bicyclic dihydroisoquinoline-1-one derivatives” (Hoffmann-La Roche Inc., priority 2011, dated 2015).
# Tests used:
# human CYP11B2 = molecular target: T1, human CYP11B2 (Homo sapiens, UniProt P19099); assay: G-402 cellular enzyme assay, human CYP11B2 (aldosterone release, HTRF); format: cell-based; settings: G-402 cells, 1 μM Deoxycorticosterone
# T1 construct: expressed in transfected cells
# T1 sequence (P19099 25-503): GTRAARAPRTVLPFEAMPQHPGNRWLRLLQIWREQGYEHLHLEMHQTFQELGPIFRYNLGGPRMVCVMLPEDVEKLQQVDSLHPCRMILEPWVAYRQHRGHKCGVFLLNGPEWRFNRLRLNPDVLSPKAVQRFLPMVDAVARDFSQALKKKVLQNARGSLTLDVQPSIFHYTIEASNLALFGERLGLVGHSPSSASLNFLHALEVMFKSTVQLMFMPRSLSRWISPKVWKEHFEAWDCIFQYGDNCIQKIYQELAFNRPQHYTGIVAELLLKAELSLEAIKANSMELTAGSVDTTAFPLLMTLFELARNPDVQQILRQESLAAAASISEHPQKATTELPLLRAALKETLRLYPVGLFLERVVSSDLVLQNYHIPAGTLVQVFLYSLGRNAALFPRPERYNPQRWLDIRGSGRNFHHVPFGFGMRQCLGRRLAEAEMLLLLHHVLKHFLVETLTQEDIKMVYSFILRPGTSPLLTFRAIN
# Procedure, shortened: (§1)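 Stable G-402 transfectants; 16 h incubation with inhibitor plus substrate — CYP11B2: 1 μM deoxycorticosterone, aldosterone read; CYP11B1: 1 μM deoxycortisol, cortisol read. HTRF on supernatant. Medium DMEM/F12, 2.5% charcoal FCS. EC50 via MMF sigmoidal fit.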
# human CYP11B1 = molecular target: T2, human CYP11B1 (Homo sapiens, UniProt P15538); assay: G-402 cellular enzyme assay, human CYP11B1 (cortisol release, HTRF); format: cell-based; settings: G-402 cells, 1 μM Deoxycortisol
# T2 construct: expressed in transfected cells
# T2 sequence (P15538 25-503): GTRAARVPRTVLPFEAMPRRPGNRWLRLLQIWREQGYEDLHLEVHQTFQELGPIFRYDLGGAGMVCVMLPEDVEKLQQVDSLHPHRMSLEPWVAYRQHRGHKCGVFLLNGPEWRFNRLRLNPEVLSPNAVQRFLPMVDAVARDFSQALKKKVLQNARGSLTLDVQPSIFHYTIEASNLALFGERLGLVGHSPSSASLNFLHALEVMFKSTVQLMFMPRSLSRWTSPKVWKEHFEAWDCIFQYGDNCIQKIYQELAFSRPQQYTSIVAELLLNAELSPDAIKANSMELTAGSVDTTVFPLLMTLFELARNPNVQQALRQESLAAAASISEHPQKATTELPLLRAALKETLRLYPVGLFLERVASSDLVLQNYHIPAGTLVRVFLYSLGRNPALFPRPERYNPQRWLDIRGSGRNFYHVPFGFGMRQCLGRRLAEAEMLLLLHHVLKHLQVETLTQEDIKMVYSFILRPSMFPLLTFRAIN
# Procedure, shortened: as §1
Structure (SMILES),EC50 (human CYP11B2),EC50 (human CYP11B1)
"O=C1c2ccc(Cl)cc2CCN1c1cncc(CN2CC[C@@H](O)C2)c1 [Example 147, 6-Chloro-2-[5-((R)-3-hydroxy-pyrrolidin-1-ylmethyl)-pyridin-3-yl]-3,4-dihydro-2H-isoquinolin-1-one]",36.7 nM,247 nM
"Cc1ccn(Cc2cncc(N3CCc4cc(Cl)ccc4C3=O)c2)n1 [Example 190, 6-Chloro-2-[5-(3-methyl-pyrazol-1-ylmethyl)-pyridin-3-yl]-3,4-dihydro-2H-isoquinolin-1-one]",328 nM,7320 nM
"CCC(=O)NC1CCCc2c1cncc2N1C(=O)c2ccc(Cl)cc2C1(C)C (racemic) [Example 468, N-[4-(6-Chloro-1,1-dimethyl-3-oxo-1,3-dihydro-isoindol-2-yl)-5,6,7,8-tetrahydro-isoquinolin-8-yl]-propionamide]",52.8 nM,2660 nM
"CC(=O)N1CCC(c2cncc(N3C(=O)c4ccc(Cl)cc4C3(C)C)c2)C1 (centres unmarked) [Example 460, 2-[5-(1-Acetyl-pyrrolidin-3-yl)-pyridin-3-yl]-5-chloro-3,3-dimethyl-2,3-dihydro-isoindol-1-one]",12.3 nM,516 nM
"CC(c1cncc(N2CCc3cc(Cl)ccc3C2=O)c1)N(C)C (centres unmarked) [Example 266, 6-Chloro-2-[5-(1-dimethylamino-ethyl)-pyridin-3-yl]-3,4-dihydro-2H-isoquinolin-1-one]",44.4 nM,276 nM
"CCS(=O)(=O)NC1CCc2c1cncc2N1Cc2cc(Cl)ccc2C1=O (single isomer, unassigned) [Example 336, Ethanesulfonic acid [(R or S)-4-(5-chloro-1-oxo-1,3-dihydro-isoindol-2-yl)-6,7-dihydro-5H-[2]pyrindin-7-yl]-amide]",949 nM,30000 nM
"CC1(C)c2cc(Cl)ccc2C(=O)N1c1cncc(CN2CCCCS2(=O)=O)c1 [Example 415, 5-Chloro-2-[5-(1,1-dioxo-1λ6-[1,2]thiazinan-2-ylmethyl)-pyridin-3-yl]-3,3-dimethyl-2,3-dihydro-isoindol-1-one]",5.5 nM,484 nM
"CCC(=O)N[C@H]1CCCc2c1cncc2N1C(=O)c2ccc(Cl)cc2[C@@H]1C (single isomer, unassigned) [Example 362, N-[(S or R)-4-((S or R)-5-Chloro-3-methyl-1-oxo-1,3-dihydro-isoindol-2-yl)-5,6,7,8-tetrahydro-isoquinolin-8-yl]-propionamide]",53.2 nM,6090 nM
"COC[C@@H]1CCCN1Cc1cncc(N2CCc3cc(Cl)ccc3C2=O)c1 [Example 48, 6-Chloro-2-[5-((S)-2-methoxymethyl-pyrrolidin-1-ylmethyl)-pyridin-3-yl]-3,4-dihydro-2H-isoquinolin-1-one]",141 nM,1110 nM
"CCC1c2cc(Cl)ccc2C(=O)N1c1cncc2c1CCCC2NS(C)(=O)=O (mixture of isomers) [Example 346, N-[4-(5-Chloro-3-ethyl-1-oxo-1,3-dihydro-isoindol-2-yl)-5,6,7,8-tetrahydro-isoquinolin-8-yl]-methanesulfonamide]",26.3 nM,2570 nM
"O=C1c2ccc(Cl)cc2CCN1c1cncc(CN2CCC[C@@H]2CO)c1 [Example 150, 6-Chloro-2-[5-((R)-2-hydroxymethyl-pyrrolidin-1-ylmethyl)-pyridin-3-yl]-3,4-dihydro-2H-isoquinolin-1-one]",227 nM,5320 nM
"CCC1c2cc(Cl)ccc2C(=O)N1c1cncc(-c2ccnn2C)c1 (single isomer, unassigned) [Example 428, (R or S)-5-Chloro-3-ethyl-2-[5-(2-methyl-2H-pyrazol-3-yl)-pyridin-3-yl]-2,3-dihydro-isoindol-1-one]",20 nM,105 nM
"Cn1cnnc1Cc1cncc(N2CCc3cc(Cl)ccc3C2=O)c1 [Example 268, 6-Chloro-2-[5-(4-methyl-4H-[1,2,4]-triazol-3-ylmethyl)-pyridin-3-yl]-3,4-dihydro-2H-isoquinolin-1-one]",1650 nM,14200 nM
"Cn1cncc1C(=O)NCc1cncc(N2C(=O)c3ccc(Cl)cc3C2(C)C)c1 [Example 435, 3-Methyl-3H-imidazole-4-carboxylic acid [5-(6-chloro-1,1-dimethyl-3-oxo-1,3-dihydro-isoindol-2-yl)-pyridin-3-ylmethyl]-amide]",8.8 nM,256 nM
"CC(=O)NC1CCCc2c1cncc2N1C(=O)c2ccc(Cl)cc2C1(C)C (single isomer, unassigned) [Example 466, N—[(S or R)-4-(6-Chloro-1,1-dimethyl-3-oxo-1,3-dihydro-isoindol-2-yl)-5,6,7,8-tetrahydro-isoquinolin-8-yl]-acetamide]",467 nM,21300 nM

# More lines, in order of falling EC50 (human CYP11B2), values ahead:
EC50 (human CYP11B2),EC50 (human CYP11B1),Structure (SMILES)
2830 nM,36900 nM,"CC[C@H]1c2cc(Cl)ccc2C(=O)N1c1cncc2c1CCC[C@@H]2NS(C)(=O)=O (single isomer, unassigned) [Example 348, N-[(S or R)-4-((S or R)-5-Chloro-3-ethyl-1-oxo-1,3-dihydro-isoindol-2-yl)-5,6,7,8-tetrahydro-isoquinolin-8-yl]-methanesulfonamide]"
620 nM,7720 nM,"O=C1c2ccc(Cl)cc2CCN1c1cncc(Cn2cnnc2)c1 [Example 179, 6-Chloro-2-(5-[1,2,4]triazol-4-ylmethyl-pyridin-3-yl)-3,4-dihydro-2H-isoquinolin-1-one]"
224 nM,9090 nM,"Cc1c(-c2cncc(N3CCc4cc(Cl)ccc4C3=O)c2)ncn1C [Example 417, 6-Chloro-2-[5-(1,5-dimethyl-1H-imidazol-4-yl)-pyridin-3-yl]-3,4-dihydro-2H-isoquinolin-1-one]"
132 nM,4500 nM,"O=C1c2ccc(Cl)cc2C2(CC2)N1c1cccnc1 [Example 296, 6′-Chloro-2′-(pyridin-3-yl)spiro[cyclopropane-1,1′-isoindol]-3′(2′H)-one]"
132 nM,4090 nM,"O=C1CCCN1Cc1cncc(N2CCc3cc(Cl)ccc3C2=O)c1 [Example 155, 6-Chloro-2-[5-(2-oxo-pyrrolidin-1-ylmethyl)-pyridin-3-yl]-3,4-dihydro-2H-isoquinolin-1-one]"
122 nM,7730 nM,"CC1c2cc(Cl)ccc2C(=O)N1c1cncc(F)c1 (centres unmarked) [Example 123, 5-Chloro-2-(5-fluoro-pyridin-3-yl)-3-methyl-2,3-dihydro-isoindol-1-one]"
64 nM,571 nM,"O=C1c2ccc(Cl)cc2CCN1c1cncc(CCO)c1 [Example 23, 6-Chloro-2-[5-(2-hydroxy-ethyl)-pyridin-3-yl]-3,4-dihydro-2H-isoquinolin-1-one]"
37.2 nM,293 nM,"O=C1c2ccc(Cl)cc2CCN1c1cncc(N2CCOCC2)c1 [Example 224, 6-Chloro-2-(5-morpholin-4-yl-pyridin-3-yl)-3,4-dihydro-2H-isoquinolin-1-one]"
30.2 nM,2040 nM,"CN1CCN(Cc2cncc(N3C(=O)c4ccc(Cl)cc4C3(C)C)c2)C1=O [Example 414, 5-Chloro-3,3-dimethyl-2-[5-(3-methyl-2-oxo-imidazolidin-1-ylmethyl)-pyridin-3-yl]-2,3-dihydro-isoindol-1-one]"
28.8 nM,2180 nM,"CC(=O)NC1CCCc2c1cncc2N1C(=O)c2ccc(Cl)cc2C1(C)C (single isomer, unassigned) [Example 467, N—[(R or S)-4-(6-Chloro-1,1-dimethyl-3-oxo-1,3-dihydro-isoindol-2-yl)-5,6,7,8-tetrahydro-isoquinolin-8-yl]-acetamide]"
16.4 nM,285 nM,"CC1(C)c2nc(Cl)ccc2C(=O)N1c1cncc(OC(F)F)c1 [Example 293, 2-Chloro-6-(5-difluoromethoxy-pyridin-3-yl)-7,7-dimethyl-6,7-dihydro-pyrrolo[3,4-b]pyridin-5-one]"
16 nM,2450 nM,"CCC1c2cc(Cl)ccc2C(=O)N1c1cncc(F)c1 (single isomer, unassigned) [Example 309, (R or S)-5-Chloro-3-ethyl-2-(5-fluoro-pyridin-3-yl)-2,3-dihydro-isoindol-1-one]"
1.8 nM,298 nM,"CC1(C)c2cc(Cl)ccc2C(=O)N1c1cncc(N2CCN(S(C)(=O)=O)CC2)c1 [Example 457, 5-Chloro-2-[5-(4-methanesulfonyl-piperazin-1-yl)-pyridin-3-yl]-3,3-dimethyl-2,3-dihydroisoindol-1-one]"
